According to PubChem BioAssay AID2740 (NMMLSC, 2010):
Calls of active or inactive are those of the source.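 The calls were made as follows: active = compounds whose fitted half-maximal concentration for changing the GFP signal is at or below a set limit; inactive = the rest.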

Assay: TOR pathway RPL19A-GFP modulators, concentration series – cell-based, S. cerevisiae, flow cytometry, MLPCN hits, dose response (AID 2740);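 also: background is signal of the same compound in parental non-GFP s288c yeast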
Conditions: S. cerevisiae RPL19A-GFP strain, flow cytometry fluorescence, 3 h; at 33 µM (top of the series)

Cc1ccc(S(=O)(=O)/N=C(\Sc2ccccc2)c2ccccc2)cc1
GFP fluorescence, lower = active (kMESF (background-subtracted)): 42 (inactive)

CCc1ccc(/C=C/C(=O)c2cc(Br)ccc(=O)c2O)cc1
GFP fluorescence, lower = active (kMESF (background-subtracted)): 40.6 (inactive)

Nc1nc(N)c2nc(CNc3ccc(C(=O)NC(CCC(=O)O)C(=O)O)cc3)cnc2n1 (stereo not drawn)
GFP fluorescence, lower = active (kMESF (background-subtracted)): 45.5 (inactive)

CCC(=O)Oc1oc(-c2ccccc2)nc1C=Nc1ccccc1OC
GFP fluorescence, lower = active (kMESF (background-subtracted)): 41.6 (inactive)

O=C(c1ccc(C(=O)N2CCCc3ccccc32)s1)N1CCCc2ccccc21
GFP fluorescence, lower = active (kMESF (background-subtracted)): 38.1 (inactive)

Cc1ccc(/C=C2\SC(=S)N(CC3CCCO3)C2=O)o1 (stereo not drawn)
GFP fluorescence, lower = active (kMESF (background-subtracted)): 42.5 (inactive)

O=C(Nc1ccc(NC(=O)c2cc3ccccc3o2)cc1)c1ccc2c(c1)OCCO2
GFP fluorescence, lower = active (kMESF (background-subtracted)): 40.1 (inactive)

O=C1C(Cl)=C(NCCc2ccccc2)C(=O)N1CCc1ccccc1
GFP fluorescence, lower = active (kMESF (background-subtracted)): 43.1 (inactive)

COC(=O)c1cc(N2C(=O)C3C(C2=O)C2(C)C=CC3(C)O2)ccc1Cl (stereo not drawn)
GFP fluorescence, lower = active (kMESF (background-subtracted)): 28.8 (inactive)

On1ccccc1=S
GFP fluorescence, lower = active (kMESF (background-subtracted)): 38 (inactive)

Cc1ccc(/C=C/C(=O)c2ccc([N+](=O)[O-])o2)cc1
GFP fluorescence, lower = active (kMESF (background-subtracted)): 46.1 (inactive)

O=C(NC(=S)NNC(=O)c1cnccn1)c1ccc(F)cc1
GFP fluorescence, lower = active (kMESF (background-subtracted)): 31.9 (inactive)

Cc1ccc(S(=O)(=O)c2ncccc2[N+](=O)[O-])cc1
GFP fluorescence, lower = active (kMESF (background-subtracted)): 47.4 (inactive)

COc1cccc(N=Cc2nc(-c3ccccc3)oc2OC(C)=O)c1
GFP fluorescence, lower = active (kMESF (background-subtracted)): 41.9 (inactive)

CC[C@]1(c2ccccc2C)ON(c2ccccc2C(F)(F)F)C1=O
GFP fluorescence, lower = active (kMESF (background-subtracted)): 40 (inactive)

COc1ccccc1N=Nc1ccc(O)c2ncccc12
GFP fluorescence, lower = active (kMESF (background-subtracted)): 32.6 (inactive)

O=c1[nH]c(-c2ccc(Cl)cc2)cs1
GFP fluorescence, lower = active (kMESF (background-subtracted)): 41.6 (inactive)

O=C(O)c1ccccc1SC1CC(=O)N(c2ccc3c(c2)OCO3)C1=O (stereo not drawn)
GFP fluorescence, lower = active (kMESF (background-subtracted)): 43.5 (inactive)

COc1ccc(-c2cc3cc(C(=O)O)ccn3c2C(=O)c2ccccc2)cc1
GFP fluorescence, lower = active (kMESF (background-subtracted)): 43.5 (inactive)

COc1ccc2c(/C=C/c3cc[n+](C)cc3)c[nH]c2c1
GFP fluorescence, lower = active (kMESF (background-subtracted)): 39 (inactive)

C#CCOc1c(Br)cc(/C=C2/C(=O)ON=C2C)cc1OC
GFP fluorescence, lower = active (kMESF (background-subtracted)): 32.9 (inactive)

CN(c1ccccc1)c1ccc(/C=c2\s/c(=C(/C#N)C(=O)C(C)(C)C)n(Cc3ccco3)c2=O)cc1
GFP fluorescence, lower = active (kMESF (background-subtracted)): 56 (inactive)

Oc1c(CN2CCCCC2)cc(Br)c2cccnc12
GFP fluorescence, lower = active (kMESF (background-subtracted)): 43.4 (inactive)

CC(C)CC(=O)NC(=S)Nc1nc(-c2ccccc2)cs1
GFP fluorescence, lower = active (kMESF (background-subtracted)): 38.4 (inactive)

CCn1c(/C=C/c2ccc([N+](=O)[O-])o2)nc2ccccc2c1=O
GFP fluorescence, lower = active (kMESF (background-subtracted)): -37.1 (inactive)

N/C(=N\OC(=O)c1cc(Br)ccc1Cl)c1ccccn1
GFP fluorescence, lower = active (kMESF (background-subtracted)): 39.8 (inactive)

Oc1c(I)cc(Cl)c2cccnc12
GFP fluorescence, lower = active (kMESF (background-subtracted)): 25.8 (inactive)

Nc1nc2ncc(CNc3ccc(C(=O)N[C@@H](CCC(=O)O)C(=O)O)cc3)nc2c(=O)[nH]1
GFP fluorescence, lower = active (kMESF (background-subtracted)): 37 (inactive)

Cc1ccc(NC(=O)c2ccc(Cl)c(N3C(=O)C=CC3=O)c2)cc1
GFP fluorescence, lower = active (kMESF (background-subtracted)): 22.4 (inactive)

Cc1ccc(S(=O)(=O)Cc2cc(F)c([N+](=O)[O-])cc2[N+](=O)[O-])cc1
GFP fluorescence, lower = active (kMESF (background-subtracted)): 7.75 (inactive)

N#C/C(=C\c1ccccn1)c1nc2ccccc2s1
GFP fluorescence, lower = active (kMESF (background-subtracted)): 54.2 (inactive)

CCC(=O)Nc1ccc(NC(=O)c2cc3ccccc3o2)cc1
GFP fluorescence, lower = active (kMESF (background-subtracted)): 39.4 (inactive)

Oc1ccc2ccccc2c1N=Nc1nccs1
GFP fluorescence, lower = active (kMESF (background-subtracted)): 51 (inactive)

Cc1cc(C)c2c(c1)/C(=C/C(=O)c1ccc(Br)s1)C(=O)N2
GFP fluorescence, lower = active (kMESF (background-subtracted)): 46.6 (inactive)

CCOc1ccc(C(C)=O)cc1N1C(=O)C2C3C=CC(O3)C2C1=O (stereo not drawn)
GFP fluorescence, lower = active (kMESF (background-subtracted)): 42.4 (inactive)

O=C1N(c2ccccc2C(F)(F)F)O[C@@]1(c1ccccc1)C1CCCC1
GFP fluorescence, lower = active (kMESF (background-subtracted)): 46 (inactive)

O=C(/C=C/c1ccccc1)NC(=S)NNC(=O)Cc1cccs1
GFP fluorescence, lower = active (kMESF (background-subtracted)): 45.5 (inactive)

Cc1cccc(NC(c2ccc(C)s2)c2ccc3ccc(C)nc3c2O)n1 (stereo not drawn)
GFP fluorescence, lower = active (kMESF (background-subtracted)): 31.2 (inactive)

CC(C)C(=O)NC(c1cccs1)c1cc([N+](=O)[O-])c2cccnc2c1O (stereo not drawn)
GFP fluorescence, lower = active (kMESF (background-subtracted)): 31.9 (inactive)

Cc1ccc(C(c2cc(Cl)c3cccnc3c2O)N2CCN(C)CC2)cc1 (stereo not drawn)
GFP fluorescence, lower = active (kMESF (background-subtracted)): 29.8 (inactive)

Cc1ccccc1N=Nc1ccc(O)c2ncccc12
GFP fluorescence, lower = active (kMESF (background-subtracted)): 36.9 (inactive)

CC(=O)Oc1ccc(N2C(=O)C3C4C=CC(CO)(O4)C3C2=O)cc1 (stereo not drawn)
GFP fluorescence, lower = active (kMESF (background-subtracted)): 38.8 (inactive)

Cc1ccc(N=c2ssnc2Cl)cc1
GFP fluorescence, lower = active (kMESF (background-subtracted)): 23 (inactive)

COc1cccc(N=Nc2ccc(O)c3ncccc23)c1
GFP fluorescence, lower = active (kMESF (background-subtracted)): 50.7 (inactive)

COc1ccc(C=C2C(=O)c3ccccc3C2=O)cc1O
GFP fluorescence, lower = active (kMESF (background-subtracted)): 38.1 (inactive)

CC(C)(C)C(=O)NC(=S)NNC(=O)c1ccc(-c2ccccc2)cc1
GFP fluorescence, lower = active (kMESF (background-subtracted)): 40.7 (inactive)

COc1ccccc1N1C(=O)c2cccc3c(C(=O)O)ccc(c23)C1=O
GFP fluorescence, lower = active (kMESF (background-subtracted)): 44.8 (inactive)

Cc1cc(C)c(C)c(S(=O)(=O)ON2C(=O)c3ccccc3C2=O)c1C
GFP fluorescence, lower = active (kMESF (background-subtracted)): 49.1 (inactive)

Cc1ccc(/C(N)=N/OC(=O)c2ccc(F)cc2)cc1
GFP fluorescence, lower = active (kMESF (background-subtracted)): 43.7 (inactive)

CC1(c2ccccc2)ON(c2ccccc2C(F)(F)F)C1=O (stereo not drawn)
GFP fluorescence, lower = active (kMESF (background-subtracted)): 40 (inactive)

O=C(Oc1cccc2cccnc12)c1ccc(Br)o1
GFP fluorescence, lower = active (kMESF (background-subtracted)): 44.1 (inactive)

CCCCc1ccc(/C=C2/C(=O)ON=C2c2ccccc2)s1
GFP fluorescence, lower = active (kMESF (background-subtracted)): 44.1 (inactive)

Cc1cc(O)c(C(=O)/C=C/c2c(F)c(F)c(F)c(F)c2F)c(=O)o1
GFP fluorescence, lower = active (kMESF (background-subtracted)): 26.6 (inactive)

O=C(Sc1cccc2cccnc12)c1ccccc1Br
GFP fluorescence, lower = active (kMESF (background-subtracted)): 34.8 (inactive)

O=C(/C=C/c1ccc(Cl)c([N+](=O)[O-])c1)c1cccnc1
GFP fluorescence, lower = active (kMESF (background-subtracted)): 36.9 (inactive)

O=C(O)c1ccc(COc2ccccc2C=C2C(=O)c3ccccc3C2=O)cc1
GFP fluorescence, lower = active (kMESF (background-subtracted)): 38.9 (inactive)

Oc1c(CN2CCN(c3ccccc3)CC2)cc(Br)c2cccnc12
GFP fluorescence, lower = active (kMESF (background-subtracted)): 38.4 (inactive)

COC(=O)CCCC1=CC2=CC(=O)C(C)(OC(=O)CCc3ccccc3)C(=O)C2=CO1 (stereo not drawn)
GFP fluorescence, lower = active (kMESF (background-subtracted)): 42.8 (inactive)

N#Cc1cc([N+](=O)[O-])c(-n2nnc3ccccc32)c([N+](=O)[O-])c1
GFP fluorescence, lower = active (kMESF (background-subtracted)): 43.3 (inactive)

CCOC(=O)Cn1cc(/C=C/[N+](=O)[O-])c2ccccc21
GFP fluorescence, lower = active (kMESF (background-subtracted)): 39.5 (inactive)

Cc1cc2ccccn2c1C(=O)c1ccc([N+](=O)[O-])o1
GFP fluorescence, lower = active (kMESF (background-subtracted)): 20.7 (inactive)

Cc1cccc(Nc2nc(-c3ccccn3)cs2)n1
GFP fluorescence, lower = active (kMESF (background-subtracted)): 29.8 (inactive)

CSC1=NS(=O)(=O)c2c(C)nn(C)c2S1
GFP fluorescence, lower = active (kMESF (background-subtracted)): 35.2 (inactive)

O=[N+]([O-])c1ccc(S(=O)(=O)c2ccccc2)nc1
GFP fluorescence, lower = active (kMESF (background-subtracted)): 29.6 (inactive)

O=[N+]([O-])c1c(Nc2ccccn2)cc(Cl)c2nonc12
GFP fluorescence, lower = active (kMESF (background-subtracted)): 68.3 (inactive)

C=CCN1C(=O)/C(=C/c2ccc(-c3ccc(F)cc3)o2)SC1=S
GFP fluorescence, lower = active (kMESF (background-subtracted)): 34.7 (inactive)

O=C1c2ccccc2C(=O)N1OS(=O)(=O)c1ccc(F)cc1
GFP fluorescence, lower = active (kMESF (background-subtracted)): 37.2 (inactive)

Cc1cccc(/C=C/C(=O)c2ccc([N+](=O)[O-])o2)c1
GFP fluorescence, lower = active (kMESF (background-subtracted)): 16.1 (inactive)

O=c1cc(-c2ccccc2)cc(-c2ccccc2)n1O
GFP fluorescence, lower = active (kMESF (background-subtracted)): 15.4 (inactive)

COc1ccc(/C=C/C(=O)c2cc(Br)ccc(=O)c2O)cc1
GFP fluorescence, lower = active (kMESF (background-subtracted)): -35.7 (inactive)

Cc1ccccc1N1C(=O)C(Cl)=C(N2CCN(c3ccccc3)CC2)C1=O
GFP fluorescence, lower = active (kMESF (background-subtracted)): 39.3 (inactive)

Cc1c(NC2=C(Cl)C(=O)N(c3ccccc3)C2=O)c(=O)n(-c2ccccc2)n1C
GFP fluorescence, lower = active (kMESF (background-subtracted)): 43.6 (inactive)

O=C(/C=C/c1ccccc1[N+](=O)[O-])c1ccccc1Br
GFP fluorescence, lower = active (kMESF (background-subtracted)): 44.1 (inactive)

O=C(O)c1cccc(S(=O)(=O)Nc2ccc(S(=O)(=O)N3CCOCC3)cc2)c1
GFP fluorescence, lower = active (kMESF (background-subtracted)): 38.7 (inactive)

O=C(C#Cc1cccc([N+](=O)[O-])c1)c1ccccc1
GFP fluorescence, lower = active (kMESF (background-subtracted)): 41.3 (inactive)

O=C(Nc1nc(-c2ccccn2)cs1)C1COc2ccccc2O1 (stereo not drawn)
GFP fluorescence, lower = active (kMESF (background-subtracted)): 21.1 (inactive)

Cc1ccc(C(=O)NNC(=S)NC(=O)COc2ccccc2)cc1
GFP fluorescence, lower = active (kMESF (background-subtracted)): 41.1 (inactive)

CC(=O)N(\C=C/C=C/C=C1\Sc2ccccc2C1=O)c1ccccc1
GFP fluorescence, lower = active (kMESF (background-subtracted)): 56.1 (inactive)

CCC(C)/C(C)=N/NC(=O)c1ccc(COc2ccc(Cl)c(C)c2)cc1 (stereo not drawn)
GFP fluorescence, lower = active (kMESF (background-subtracted)): 44.9 (inactive)

Cc1ccc(NC(=O)c2nc(S(=O)(=O)Cc3ccccc3)ncc2Cl)cc1
GFP fluorescence, lower = active (kMESF (background-subtracted)): 43 (inactive)

Cc1ccc(/C=C2\SC(=S)N(Cc3ccccc3)C2=O)o1
GFP fluorescence, lower = active (kMESF (background-subtracted)): 39.4 (inactive)

O=c1c2cc(Br)ccc2nc(-c2ccc([N+](=O)[O-])cc2)n1O
GFP fluorescence, lower = active (kMESF (background-subtracted)): 15.6 (inactive)

COc1cccc(/C=C2\SC(=S)N(CCCC(=O)Nc3ccc(C(=O)O)cc3)C2=O)c1
GFP fluorescence, lower = active (kMESF (background-subtracted)): 38.2 (inactive)
